Test results from the OligoGym collection.
Values joined by “and” are separate entries in the source; they are usually repeats but may differ in a detail not shown here. Equal values may be shown once. After the bases stand the sugars from the 5' end (letter, count) and the backbone: PS all phosphorothioate, else s phosphorothioate and o phosphodiester by linkage. Methylation of C is not given here. k = constrained ethyl (cEt); d = 2'-deoxy (DNA)

Molecular target: MALAT1
Conditions: ASO, A431, 0.005 µM

Sequence | target mRNA inhibition
ATTCACCAAGGAGCTG (sugars k3 d10 k3, PS) | 39%
TACCTTTTACTCTGAT (sugars k3 d10 k3, PS) | 42%
TCATAATCTCCCACCT (sugars k3 d10 k3, PS) | 10%
AGCTTCATCAAACACT (sugars k3 d10 k3, PS) | 3%
TTAAAGTGTGATAGTT (sugars k3 d10 k3, PS) | 6%
ACATCAAGGATGTATA (sugars k3 d10 k3, PS) | -6%
GCGGTTTCCTCAAGCT (sugars k3 d10 k3, PS) | 20%
AGTCAAAGCAAAGACG (sugars k3 d10 k3, PS) | 35%
AATCAGGTGAGGCTGA (sugars k3 d10 k3, PS) | -26%
TTATTAAGAGCTGCTA (sugars k3 d10 k3, PS) | 27% and 44%
TTGTGAGGGAGGCAAA (sugars k3 d10 k3, PS) | 20%
CTTCAAGCACCGCTTG (sugars k3 d10 k3, PS) | 21% and 28%
TGCCATCTACTATTTC (sugars k3 d10 k3, PS) | 19%
AATTACTTCCGTTACG (sugars k3 d10 k3, PS) | 43%
CTCGGGCTGCAGGCTG (sugars k3 d10 k3, PS) | 19%
TATAAGGACAGCTAAG (sugars k3 d10 k3, PS) | 21%
CACCCGGAAATCGGCC (sugars k3 d10 k3, PS) | -1%
CCGTCCTGGAAACCAG (sugars k3 d10 k3, PS) | 16%
ATTGTAGTTAATGTCA (sugars k3 d10 k3, PS) | 50%

Sequence | target mRNA inhibition
GCTCGCTTGCTCCTCA (sugars k3 d10 k3, PS) | 39%
AGCTATTAAAATTACG (sugars k3 d10 k3, PS) | 22%
CCTACTGAAGAGCATT (sugars k3 d10 k3, PS) | 25%
AGCTGTCAATTAATGC (sugars k3 d10 k3, PS) | 10%
TTGCCTACCACTCTAA (sugars k3 d10 k3, PS) | 0%
GCTAAGCAATATCTTA (sugars k3 d10 k3, PS) | 32%
CCCTCTAAGAGACATT (sugars k3 d10 k3, PS) | 32%
CTTCATTACCCCAACT (sugars k3 d10 k3, PS) | 14%
GTGAATTCAACTGGAA (sugars k3 d10 k3, PS) | 50%
CCCGGAACTTTTAAAA (sugars k3 d10 k3, PS) | -7%
CAGGCTGGTTATGACT (sugars k3 d10 k3, PS) | 26%
ACTGAATCCACTTCTG (sugars k3 d10 k3, PS) | 35%
GCTGATAAACTCACTG (sugars k3 d10 k3, PS) | 55% and 65%
ATTAAATTGATGGGCT (sugars k3 d10 k3, PS) | 20%
GAATCTTACTTGATAA (sugars k3 d10 k3, PS) | 13%
TTTTTACCAACCACTC (sugars k3 d10 k3, PS) | 26%
TAGAGCTTCTCCATTT (sugars k3 d10 k3, PS) | -15%
TGCCTACCGCACAGCT (sugars k3 d10 k3, PS) | 19%
AACTAAGCTACTATAT (sugars k3 d10 k3, PS) | -2%

Sequence | target mRNA inhibition
CATTGGCACACAGCAC (sugars k3 d10 k3, PS) | 21%
AGGAACAAGTCCTACA (sugars k3 d10 k3, PS) | 36%
CCTTTATCACTCAGCT (sugars k3 d10 k3, PS) | 54%
TATGAACCAAAGCTGC (sugars k3 d10 k3, PS) | 7%
GTCAAGCTCCTGACAA (sugars k3 d10 k3, PS) | 33%
AGATACCTGTCTGAGG (sugars k3 d10 k3, PS) | 12%
GCTAGGGAAAAGTGGT (sugars k3 d10 k3, PS) | 5%
AAAAGATCGCCTTCAA (sugars k3 d10 k3, PS) | 34%
CCTTCGGTTTAATCTC (sugars k3 d10 k3, PS) | 61% and 58%
ACTCGCTCCTTCCTGG (sugars k3 d10 k3, PS) | 48%
CTCCAGCATAAAGCTG (sugars k3 d10 k3, PS) | 12%
AACTGGAAGCTCCTTC (sugars k3 d10 k3, PS) | 17%
CGGACTTTCTCCCCCA (sugars k3 d10 k3, PS) | -9%
CTGCTCGCCTCCTCCG (sugars k3 d10 k3, PS) | 16%
GCCTTTTCTAACATAG (sugars k3 d10 k3, PS) | -1%
CGTCCTGGAAACCAGG (sugars k3 d10 k3, PS) | 21%
GGGAATACTCTTCCAA (sugars k3 d10 k3, PS) | 14%
AAAGAACTAGTGGTTC (sugars k3 d10 k3, PS) | -4%
